Experimental data published in patent publication US6737383B1, “Herbicidal oxadiazolidines” (priority 1999, dated 2004).

Tests used:
bedstraw = assay: Test B pre/postemergence bedstraw; assay type: in vivo, Galium aparine
In short: (§1)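 Test chemicals in a non-phytotoxic solvent mixture with surfactant were sprayed preemergence onto planted seeds and postemergence onto plants 2 to 18 cm tall (1- to 4-leaf stage). After twelve to sixteen days in a greenhouse, injury was visually rated against untreated controls from 0 (no effect) to 10 (complete control).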

blackgrass = assay: Test B pre/postemergence blackgrass; assay type: in vivo, Alopecurus myosuroides
In short: as §1

surinam grass = assay: Test B pre/postemergence surinam grass; assay type: in vivo, Brachiaria decumbens
In short: as §1

corn = assay: Test B pre/postemergence corn; assay type: in vivo, Zea mays
In short: as §1

crabgrass = assay: Test B pre/postemergence crabgrass; assay type: in vivo, Digitaria sanguinalis
In short: as §1

pigweed = assay: Test B pre/postemergence pigweed; assay type: in vivo, Amaranthus retroflexus
In short: as §1

rape = assay: Test B pre/postemergence rape; assay type: in vivo, Brassica napus
In short: as §1

soybean = assay: Test B pre/postemergence soybean; assay type: in vivo, Glycine max
In short: as §1

sugar beet = assay: Test B pre/postemergence sugar beet; assay type: in vivo, Beta vulgaris
In short: as §1

velvetleaf = assay: Test B pre/postemergence velvetleaf; assay type: in vivo, Abutilon theophrasti
In short: as §1

wheat = assay: Test B pre/postemergence wheat; assay type: in vivo, Triticum aestivum
In short: as §1

wild oat = assay: Test B pre/postemergence wild oat; assay type: in vivo, Avena fatua
In short: as §1

purple nutsedge = assay: Test B pre/postemergence purple nutsedge; assay type: in vivo, Cyperus rotundus
In short: as §1

rice = assay: Test B flood test rice; assay type: in vivo, Oryza sativa
In short: (§2)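 Each value is a visual injury score relative to controls, with 10 meaning complete control and 0 no effect. Evaluation took place twelve to sixteen days after the 2-leaf-stage plants were treated and kept in the greenhouse.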

smallflower flatsedge = assay: Test B flood test smallflower flatsedge; assay type: in vivo, Cyperus difformis
In short: as §2

duck salad = assay: Test B flood test duck salad; assay type: in vivo, Heteranthera limosa
In short: as §2

[1] = Postemergence, Rate 62 g/ha, scale 0 to 10, 0 is no effect, 10 is complete control
[2] = Postemergence, Rate 250 g/ha, scale 0 to 10, 0 no effect, 10 complete control
[3] = Preemergence, Rate 62 g/ha, scale 0 to 10 (0 no effect, 10 complete control)
[4] = Preemergence, Rate 125 g/ha, scale 0 to 10 (0 no effect, 10 complete control)
[5] = Preemergence, Rate 250 g/ha, scale of 0 to 10 where 0 is no effect and 10 is complete control
[6] = Preemergence, Rate 500 g/ha, scale 0 (no effect) to 10 (complete control)
[7] = Rate 125 g/ha, Postemergence, scale 0 to 10, 0 no effect, 10 complete control
[8] = Rate 500 g/ha, Postemergence, scale 0 to 10, 0 no effect, 10 complete control
[9] = Rate 125 g/ha, Postemergence section (flood test species), scale 0 to 10, 0 no effect, 10 complete control
[10] = Rate 500 g/ha, listed under Postemergence (flood test species), scale 0 to 10, 0 no effect, 10 complete control
[11] = flood test, listed under Postemergence, Rate 250 g/ha, scale 0 to 10, 0 no effect, 10 complete control

Cc1ccccc1-n1c(=O)on(C(=O)N(c2cc(F)ccc2F)C(C)C)c1=O [Compound 68]
Bedstraw plant response rating (bedstraw; [1]): 4
Bedstraw plant response rating (bedstraw; [2]): 7
Bedstraw plant response rating (bedstraw; [3]): 0
Plant response rating, Bedstraw (bedstraw; [4]): 0
Plant response rating, Bedstraw (bedstraw; [5]): 4
Bedstraw plant response rating (bedstraw; [6]): 4
Bedstraw plant response rating (bedstraw; [7]): 7
Blackgrass plant response rating (blackgrass; [1]): 0
Blackgrass plant response rating (blackgrass; [2]): 2
Blackgrass plant response rating (blackgrass; [3]): 0
Plant response rating, Blackgrass (blackgrass; [4]): 2
Plant response rating, Blackgrass (blackgrass; [5]): 2
Blackgrass plant response rating (blackgrass; [6]): 4
Blackgrass plant response rating (blackgrass; [7]): 0
Blackgrass plant response rating (blackgrass; [8]): 2
B. signalgrass plant response rating (surinam grass; [1]): 0
B. signalgrass plant response rating (surinam grass; [2]): 0
B. signalgrass plant response rating (surinam grass; [3]): 0
Plant response rating, B. signalgrass (surinam grass; [4]): 3
Plant response rating, B. signalgrass (surinam grass; [5]): 4
B. signalgrass plant response rating (surinam grass; [6]): 8
B. signalgrass plant response rating (surinam grass; [7]): 0
B. signalgrass plant response rating (surinam grass; Rate 500 g/ha, Postemergence, scale of 0 to 10 where 0 is no effect and 10 is complete control): 0
Corn plant response rating (corn; [1]): 0
Corn plant response rating (corn; [2]): 0
Corn plant response rating (corn; [3]): 0
Plant response rating, Corn (corn; [4]): 0
Plant response rating, Corn (corn; [5]): 0
Corn plant response rating (corn; [6]): 0
Corn plant response rating (corn; [7]): 0
Corn plant response rating (corn; [8]): 0
Crabgrass plant response rating (crabgrass; [1]): 0
Crabgrass plant response rating (crabgrass; [2]): 0
Crabgrass plant response rating (crabgrass; [3]): 2
Plant response rating, Crabgrass (crabgrass; [4]): 3
Plant response rating, Crabgrass (crabgrass; [5]): 10
Crabgrass plant response rating (crabgrass; [6]): 10
Crabgrass plant response rating (crabgrass; [7]): 0
Crabgrass plant response rating (crabgrass; [8]): 0
Redroot pigweed plant response rating (pigweed; [1]): 0
Redroot pigweed plant response rating (pigweed; [2]): 0
Redroot pigweed plant response rating (pigweed; [3]): 0
Plant response rating, Redroot pigweed (pigweed; [4]): 2
Plant response rating, Redroot pigweed (pigweed; [5]): 7
Redroot pigweed plant response rating (pigweed; [6]): 10
Redroot pigweed plant response rating (pigweed; [7]): 0
Redroot pigweed plant response rating (pigweed; [8]): 0
Rape plant response rating (rape; [1]): 0
Rape plant response rating (rape; [2]): 0
Rape plant response rating (rape; [3]): 0
Plant response rating, Rape (rape; [4]): 0
Plant response rating, Rape (rape; [5]): 2
Rape plant response rating (rape; [6]): 6
Rape plant response rating (rape; [7]): 0
Rape plant response rating (rape; [8]): 0
Soybean plant response rating (soybean; [1]): 1
Soybean plant response rating (soybean; [2]): 3
Soybean plant response rating (soybean; [3]): 0
Plant response rating, Soybean (soybean; [4]): 0
Plant response rating, Soybean (soybean; [5]): 0
Soybean plant response rating (soybean; [6]): 0
Soybean plant response rating (soybean; [7]): 2
Soybean plant response rating (soybean; [8]): 3
Sugarbeets plant response rating (sugar beet; [1]): 0
Sugarbeets plant response rating (sugar beet; [2]): 0
Sugarbeets plant response rating (sugar beet; [3]): 0
Plant response rating, Sugarbeets (sugar beet; [4]): 0
Plant response rating, Sugarbeets (sugar beet; [5]): 0
Sugarbeets plant response rating (sugar beet; [6]): 0
Sugarbeets plant response rating (sugar beet; [7]): 0
Sugarbeets plant response rating (sugar beet; [8]): 3
Velvetleaf plant response rating (velvetleaf; [1]): 0
Velvetleaf plant response rating (velvetleaf; [2]): 2
Velvetleaf plant response rating (velvetleaf; [3]): 0
Plant response rating, Velvetleaf (velvetleaf; [4]): 0
Plant response rating, Velvetleaf (velvetleaf; [5]): 0
Velvetleaf plant response rating (velvetleaf; [6]): 0
Velvetleaf plant response rating (velvetleaf; [7]): 0
Velvetleaf plant response rating (velvetleaf; [8]): 3
Wheat plant response rating (wheat; [1]): 0
Wheat plant response rating (wheat; [2]): 0
Wheat plant response rating (wheat; [3]): 0
Plant response rating, Wheat (wheat; [4]): 0
Plant response rating, Wheat (wheat; [5]): 0
Wheat plant response rating (wheat; [6]): 0
Wheat plant response rating (wheat; [7]): 0
Wheat plant response rating (wheat; [8]): 0
Wild oats plant response rating (wild oat; [1]): 0
Wild oats plant response rating (wild oat; [2]): 0
Wild oats plant response rating (wild oat; [3]): 0
Plant response rating, Wild oats (wild oat; [4]): 0
Plant response rating, Wild oats (wild oat; [5]): 2
Wild oats plant response rating (wild oat; [6]): 2
Wild oats plant response rating (wild oat; [7]): 0
Wild oats plant response rating (wild oat; [8]): 0
Nutsedge plant response rating (purple nutsedge; [1]): 0
Nutsedge plant response rating (purple nutsedge; [2]): 0
Plant response rating, Nutsedge (purple nutsedge; [4]): 0
Plant response rating, Nutsedge (purple nutsedge; [5]): 10
Nutsedge plant response rating (purple nutsedge; [6]): 10
Nutsedge plant response rating (purple nutsedge; [7]): 0
Nutsedge plant response rating (purple nutsedge; [8]): 0
Rice plant response rating (rice; [1]): 0
Rice plant response rating (rice; [9]): 0
Rice plant response rating (rice; [10]): 0
Rice plant response rating (rice; [11]): 0
S. Flatsedge plant response rating (smallflower flatsedge; [1]): 0
S. Flatsedge plant response rating (smallflower flatsedge; [9]): 0
S. Flatsedge plant response rating (smallflower flatsedge; [10]): 0
S. Flatsedge plant response rating (smallflower flatsedge; [11]): 0
Ducksalad plant response rating (duck salad; [1]): 0
Ducksalad plant response rating (duck salad; [9]): 0
Ducksalad plant response rating (duck salad; [10]): 0
Ducksalad plant response rating (duck salad; [11]): 0
